US5998366A, “Method for ameliorating glutamic acid decarboxylase associated autoimmune disorders” (The Regents of the University of California, priority 1997, dated 1999)

Test system: female NOD mice
Test: GAD immunization of 8 week old NOD mice, onset of IDDM
Type: in vivo
Source text: An IPTG inducible T7 expression vector was used to express both human GAD65 and E. coli b galactosidase (β-gal). In IPTG induced recombinant E. coli, GAD and β-gal constitute about 10-20% of the total bacterial protein. However, almost all of the GAD was in inclusion bodies, which could be isolated and extensively washed to obtain material that is about 80% GAD. We then did affinity purifications of GAD and β-gal on the basis of a hexa-histidine "tag" which was attached to GAD during the subcloning process. These extra histidine residues allow the rapid affinity purification (Novagen) of GAD by metal affinity chromatography (Hochuli, et al., Bio Technology, 6:1321-1325, 1988). The inclusion body material is solubilized in 6M guanidine hydrochloride (GHCL), 10 mm β-mercaptoethanol and 1% triton X-100. After binding to the column, the column was extensively washed with GHCL and 8M urea in phosphate buffers. Only the central peak GAD fraction was utilized for subsequent studies. Human GAD65 shares 96% amino acid sequence identity with murine GAD65, with most of the amino acid differences being conservative substitutions.
Breeder mice were purchased from Taconic Farms and housed under specific pathogen-free conditions. Only female NOD mice were used in this study. The average age of IDDM onset in unrelated females in the colony was 22 weeks. Insulitis is generally observed beginning at 4 weeks of age. T cell responses to GAD, HSP, CPH were found by 6 weeks in age. The incidence of IDDM in female mice is 70-90% by one year of age.
At 8 weeks of age, 25 ug GAD or control β-gal. was injected intraperftoneally (ip) in 100 ul of incomplete Freunds adjuvant (IFA). Because there may be a requirement for continual antigen presentation (Ramsdell, et al., Science, 257:1130-1133, 1992) mice were treated again every 6 weeks. Urine glucose levels were monitored twice weekly. After observing above normal glucose in urea, blood glucose levels were monitored twice weekly. Two consecutive blood glucose level readings of […] was considered as IDDM onset, after which the mice were sacrificed and spleen cells were tested as described above in Example 6 for evidence of spleen cell proliferation.

## GAD: human GAD65 purified from recombinant bacteria on the basis of a hexahistidine tag
25 ug ip in IFA at 8 weeks, again every 6 weeks
  age until which 8 of the immunized mice showed no signs of hyperglycemia: 36 weeks
25 ug ip in IFA at 8 weeks, again every 6 weeks, 10 mice per group
  treated mice remaining disease free at 52 weeks of age: Four
Versus β-gal immunized mice
  significance of the delay or prevention of diabetes: < 0.02
